Drawing on ChEMBL document CHEMBL5442219, this text covers inhibition for 7 molecules.

Holding throughout (settings): Compound concentration 10 µM
For assay [1], the target named is T1, Alpha-1B adrenergic receptor (Homo sapiens) (UniProt P35368).
T1 sequence (whole entry): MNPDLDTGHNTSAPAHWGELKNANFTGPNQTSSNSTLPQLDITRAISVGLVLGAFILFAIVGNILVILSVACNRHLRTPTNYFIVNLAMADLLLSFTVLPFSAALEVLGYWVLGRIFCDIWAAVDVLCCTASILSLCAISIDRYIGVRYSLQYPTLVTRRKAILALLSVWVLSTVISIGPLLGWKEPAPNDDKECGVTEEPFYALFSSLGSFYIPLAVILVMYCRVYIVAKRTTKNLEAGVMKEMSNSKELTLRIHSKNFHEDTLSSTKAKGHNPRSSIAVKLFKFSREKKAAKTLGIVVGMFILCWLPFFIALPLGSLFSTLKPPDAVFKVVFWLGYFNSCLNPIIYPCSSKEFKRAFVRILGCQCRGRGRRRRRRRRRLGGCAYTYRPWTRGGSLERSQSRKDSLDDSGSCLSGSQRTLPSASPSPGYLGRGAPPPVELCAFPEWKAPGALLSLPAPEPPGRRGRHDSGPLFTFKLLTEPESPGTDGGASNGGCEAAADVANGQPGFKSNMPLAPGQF
Description: PDSP Primary Binding target: ADRA1B - Compounds are tested at 10 uM concentration, plate are incubated at room temperature in the dark for 90 minutes. Reaction are stopped by vacuum filtration onto 0.3% polyethyleneimine soaked filter mats using Filtermate harvester. Scintilation cocktail is then melted onto microwave-dried filters on a hot plate and the radio activity is counted in Microbia counter.

Assay [2] deals with T2, Alpha-1D adrenergic receptor (Homo sapiens) (UniProt P25100).
T2 sequence (whole entry): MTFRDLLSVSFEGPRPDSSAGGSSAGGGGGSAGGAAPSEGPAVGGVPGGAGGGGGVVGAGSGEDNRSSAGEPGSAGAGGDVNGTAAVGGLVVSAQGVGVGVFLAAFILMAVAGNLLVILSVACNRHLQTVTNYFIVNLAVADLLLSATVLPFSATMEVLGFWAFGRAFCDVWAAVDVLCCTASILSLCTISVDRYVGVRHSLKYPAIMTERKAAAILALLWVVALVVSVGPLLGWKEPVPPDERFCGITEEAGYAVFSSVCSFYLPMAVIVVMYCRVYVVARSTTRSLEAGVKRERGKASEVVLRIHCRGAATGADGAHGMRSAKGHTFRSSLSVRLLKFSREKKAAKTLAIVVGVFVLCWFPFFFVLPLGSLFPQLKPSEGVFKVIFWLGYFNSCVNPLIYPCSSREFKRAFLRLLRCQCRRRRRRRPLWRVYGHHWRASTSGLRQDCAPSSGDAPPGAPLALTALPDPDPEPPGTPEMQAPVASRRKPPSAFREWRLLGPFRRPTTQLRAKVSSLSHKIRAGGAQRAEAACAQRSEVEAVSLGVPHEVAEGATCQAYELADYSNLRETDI
Description: PDSP Primary Binding target: ADRA1D - Compounds are tested at 10 uM concentration, plate are incubated at room temperature in the dark for 90 minutes. Reaction are stopped by vacuum filtration onto 0.3% polyethyleneimine soaked filter mats using Filtermate harvester. Scintilation cocktail is then melted onto microwave-dried filters on a hot plate and the radio activity is counted in Microbia counter.

Assay [3] has as its target T3, Muscarinic acetylcholine receptor M4 (Homo sapiens) (UniProt P08173).
T3 sequence (whole entry): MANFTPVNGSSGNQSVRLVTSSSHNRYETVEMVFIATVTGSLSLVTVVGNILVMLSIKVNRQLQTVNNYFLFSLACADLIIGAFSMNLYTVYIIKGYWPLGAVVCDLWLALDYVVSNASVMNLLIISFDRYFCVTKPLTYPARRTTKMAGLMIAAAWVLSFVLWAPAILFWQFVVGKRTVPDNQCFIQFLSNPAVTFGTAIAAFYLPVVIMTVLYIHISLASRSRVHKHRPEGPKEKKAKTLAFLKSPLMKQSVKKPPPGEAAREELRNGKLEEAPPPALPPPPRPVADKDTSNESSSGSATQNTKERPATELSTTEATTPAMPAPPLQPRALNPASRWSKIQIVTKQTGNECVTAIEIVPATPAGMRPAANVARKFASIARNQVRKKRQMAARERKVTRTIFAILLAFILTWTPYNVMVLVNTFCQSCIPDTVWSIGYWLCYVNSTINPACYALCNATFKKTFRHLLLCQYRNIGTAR
Description: PDSP Primary Binding target: CHRM4 - Compounds are tested at 10 uM concentration, plate are incubated at room temperature in the dark for 90 minutes. Reaction are stopped by vacuum filtration onto 0.3% polyethyleneimine soaked filter mats using Filtermate harvester. Scintilation cocktail is then melted onto microwave-dried filters on a hot plate and the radio activity is counted in Microbia counter.

For assay [4], the target named is D(3) dopamine receptor (Homo sapiens) (UniProt P35462).
Description: PDSP Primary Binding target: DRD3 - Compounds are tested at 10 uM concentration, plate are incubated at room temperature in the dark for 90 minutes. Reaction are stopped by vacuum filtration onto 0.3% polyethyleneimine soaked filter mats using Filtermate harvester. Scintilation cocktail is then melted onto microwave-dried filters on a hot plate and the radio activity is counted in Microbia counter.
For assay [5], the target named is T4, D(4) dopamine receptor (Homo sapiens) (UniProt P21917).
T4 sequence (whole entry): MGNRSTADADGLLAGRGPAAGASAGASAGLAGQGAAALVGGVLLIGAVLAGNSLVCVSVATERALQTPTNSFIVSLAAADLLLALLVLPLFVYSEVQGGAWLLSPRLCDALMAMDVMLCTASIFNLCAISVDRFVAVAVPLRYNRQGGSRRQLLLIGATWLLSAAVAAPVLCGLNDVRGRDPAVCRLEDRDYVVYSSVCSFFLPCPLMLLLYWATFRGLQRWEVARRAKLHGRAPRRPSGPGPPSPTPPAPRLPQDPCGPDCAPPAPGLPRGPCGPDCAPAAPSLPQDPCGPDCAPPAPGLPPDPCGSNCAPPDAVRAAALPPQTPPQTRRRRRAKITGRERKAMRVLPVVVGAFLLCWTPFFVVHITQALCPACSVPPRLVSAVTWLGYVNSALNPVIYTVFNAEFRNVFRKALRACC
Description: PDSP Primary Binding target: DRD4 - Compounds are tested at 10 uM concentration, plate are incubated at room temperature in the dark for 90 minutes. Reaction are stopped by vacuum filtration onto 0.3% polyethyleneimine soaked filter mats using Filtermate harvester. Scintilation cocktail is then melted onto microwave-dried filters on a hot plate and the radio activity is counted in Microbia counter.

For assay [6], the target named is D(1B) dopamine receptor (Homo sapiens) (UniProt P21918).
Description: PDSP Primary Binding target: DRD5 - Compounds are tested at 10 uM concentration, plate are incubated at room temperature in the dark for 90 minutes. Reaction are stopped by vacuum filtration onto 0.3% polyethyleneimine soaked filter mats using Filtermate harvester. Scintilation cocktail is then melted onto microwave-dried filters on a hot plate and the radio activity is counted in Microbia counter.
The target of assay [7] is Histamine H3 receptor (Homo sapiens) (UniProt Q9Y5N1).
Description: PDSP Primary Binding target: HRH3 - Compounds are tested at 10 uM concentration, plate are incubated at room temperature in the dark for 90 minutes. Reaction are stopped by vacuum filtration onto 0.3% polyethyleneimine soaked filter mats using Filtermate harvester. Scintilation cocktail is then melted onto microwave-dried filters on a hot plate and the radio activity is counted in Microbia counter.
The target of assay [8] is T5, 5-hydroxytryptamine receptor 1A (Homo sapiens) (UniProt P08908).
T5 sequence (whole entry): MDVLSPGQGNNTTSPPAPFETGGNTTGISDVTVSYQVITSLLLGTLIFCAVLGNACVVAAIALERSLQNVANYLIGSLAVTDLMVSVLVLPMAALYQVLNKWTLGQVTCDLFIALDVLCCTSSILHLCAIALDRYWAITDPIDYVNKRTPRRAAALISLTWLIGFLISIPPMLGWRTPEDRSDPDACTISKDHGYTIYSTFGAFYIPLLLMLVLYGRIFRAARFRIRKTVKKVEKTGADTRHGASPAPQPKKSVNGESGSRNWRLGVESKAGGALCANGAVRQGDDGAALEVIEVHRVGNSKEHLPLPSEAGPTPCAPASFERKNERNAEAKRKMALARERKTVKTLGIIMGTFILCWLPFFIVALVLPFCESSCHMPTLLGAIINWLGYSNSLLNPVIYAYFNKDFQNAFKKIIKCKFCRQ
Description: PDSP Primary Binding target: HTR1A - Compounds are tested at 10 uM concentration, plate are incubated at room temperature in the dark for 90 minutes. Reaction are stopped by vacuum filtration onto 0.3% polyethyleneimine soaked filter mats using Filtermate harvester. Scintilation cocktail is then melted onto microwave-dried filters on a hot plate and the radio activity is counted in Microbia counter.

Assay [9] has as its target 5-hydroxytryptamine receptor 1B (Homo sapiens) (UniProt P28222).
Description: PDSP Primary Binding target: HTR1B - Compounds are tested at 10 uM concentration, plate are incubated at room temperature in the dark for 90 minutes. Reaction are stopped by vacuum filtration onto 0.3% polyethyleneimine soaked filter mats using Filtermate harvester. Scintilation cocktail is then melted onto microwave-dried filters on a hot plate and the radio activity is counted in Microbia counter.
The target in assay [10] is 5-hydroxytryptamine receptor 2A (Homo sapiens) (UniProt P28223).
Description: PDSP Primary Binding target: HTR2A - Compounds are tested at 10 uM concentration, plate are incubated at room temperature in the dark for 90 minutes. Reaction are stopped by vacuum filtration onto 0.3% polyethyleneimine soaked filter mats using Filtermate harvester. Scintilation cocktail is then melted onto microwave-dried filters on a hot plate and the radio activity is counted in Microbia counter.
For assay [11], the target named is Kappa-type opioid receptor (Homo sapiens) (UniProt P41145).
Description: PDSP Primary Binding target: OPRK1 - Compounds are tested at 10 uM concentration, plate are incubated at room temperature in the dark for 90 minutes. Reaction are stopped by vacuum filtration onto 0.3% polyethyleneimine soaked filter mats using Filtermate harvester. Scintilation cocktail is then melted onto microwave-dried filters on a hot plate and the radio activity is counted in Microbia counter.
The target of assay [12] is Beta-2 adrenergic receptor (Homo sapiens) (UniProt P07550).
Sequence of Beta-2 adrenergic receptor (Homo sapiens) (P07550 whole entry, looked up): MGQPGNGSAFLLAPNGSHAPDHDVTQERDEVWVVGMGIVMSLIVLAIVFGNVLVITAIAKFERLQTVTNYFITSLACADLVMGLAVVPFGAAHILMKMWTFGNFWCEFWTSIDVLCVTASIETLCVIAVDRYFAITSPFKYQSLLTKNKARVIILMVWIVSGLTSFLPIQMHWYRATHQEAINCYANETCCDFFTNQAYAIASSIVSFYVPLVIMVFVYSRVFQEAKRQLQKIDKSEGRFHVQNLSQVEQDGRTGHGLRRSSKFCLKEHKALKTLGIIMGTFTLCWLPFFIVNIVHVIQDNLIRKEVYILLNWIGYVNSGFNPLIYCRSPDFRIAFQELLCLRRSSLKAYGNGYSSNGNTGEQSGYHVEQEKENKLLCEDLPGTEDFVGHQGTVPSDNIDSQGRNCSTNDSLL
Description: PDSP Primary Binding target: ADRB2 - Compounds are tested at 10 uM concentration, plate are incubated at room temperature in the dark for 90 minutes. Reaction are stopped by vacuum filtration onto 0.3% polyethyleneimine soaked filter mats using Filtermate harvester. Scintilation cocktail is then melted onto microwave-dried filters on a hot plate and the radio activity is counted in Microbia counter.

Sequence of 5-hydroxytryptamine receptor 2A (Homo sapiens) (P28223 whole entry): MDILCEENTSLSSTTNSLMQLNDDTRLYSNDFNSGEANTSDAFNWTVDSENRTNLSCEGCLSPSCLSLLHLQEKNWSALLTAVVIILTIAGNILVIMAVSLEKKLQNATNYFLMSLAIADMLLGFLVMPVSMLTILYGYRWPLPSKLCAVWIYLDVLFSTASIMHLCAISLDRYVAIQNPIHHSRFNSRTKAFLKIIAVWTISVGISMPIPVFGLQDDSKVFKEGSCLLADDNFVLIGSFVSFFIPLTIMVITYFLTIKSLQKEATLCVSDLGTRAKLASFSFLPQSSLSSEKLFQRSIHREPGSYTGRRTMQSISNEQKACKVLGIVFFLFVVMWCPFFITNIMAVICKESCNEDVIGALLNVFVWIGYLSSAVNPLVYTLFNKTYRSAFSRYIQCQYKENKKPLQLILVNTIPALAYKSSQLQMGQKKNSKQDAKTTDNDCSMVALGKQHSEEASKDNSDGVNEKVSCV
Sequence of Histamine H3 receptor (Homo sapiens) (Q9Y5N1 whole entry): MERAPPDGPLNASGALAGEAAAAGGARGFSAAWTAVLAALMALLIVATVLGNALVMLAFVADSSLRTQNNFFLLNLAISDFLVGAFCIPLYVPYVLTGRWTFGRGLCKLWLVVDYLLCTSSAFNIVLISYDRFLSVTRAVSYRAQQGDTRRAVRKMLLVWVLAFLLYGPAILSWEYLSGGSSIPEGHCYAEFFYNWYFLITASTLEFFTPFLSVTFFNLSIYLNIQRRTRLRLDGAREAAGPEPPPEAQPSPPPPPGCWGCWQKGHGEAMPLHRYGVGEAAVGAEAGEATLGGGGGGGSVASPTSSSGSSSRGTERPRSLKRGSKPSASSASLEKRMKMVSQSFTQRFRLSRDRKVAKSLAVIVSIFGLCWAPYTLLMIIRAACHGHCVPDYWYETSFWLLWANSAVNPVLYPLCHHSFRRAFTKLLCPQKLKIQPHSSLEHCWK
Sequence of D(1B) dopamine receptor (Homo sapiens) (P21918 whole entry): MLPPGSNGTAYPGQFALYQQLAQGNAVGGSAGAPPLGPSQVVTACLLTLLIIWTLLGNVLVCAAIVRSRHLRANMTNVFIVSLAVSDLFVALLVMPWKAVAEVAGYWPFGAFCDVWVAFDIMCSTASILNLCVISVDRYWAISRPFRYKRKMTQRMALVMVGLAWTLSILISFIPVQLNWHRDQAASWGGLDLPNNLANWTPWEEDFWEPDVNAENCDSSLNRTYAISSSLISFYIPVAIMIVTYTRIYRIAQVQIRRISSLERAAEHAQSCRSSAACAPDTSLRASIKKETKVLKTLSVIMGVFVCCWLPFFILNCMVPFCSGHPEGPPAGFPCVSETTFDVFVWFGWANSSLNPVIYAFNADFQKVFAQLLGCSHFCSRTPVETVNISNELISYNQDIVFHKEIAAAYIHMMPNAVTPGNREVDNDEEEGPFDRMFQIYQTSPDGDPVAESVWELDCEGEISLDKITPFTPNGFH
Sequence of D(3) dopamine receptor (Homo sapiens) (P35462 whole entry): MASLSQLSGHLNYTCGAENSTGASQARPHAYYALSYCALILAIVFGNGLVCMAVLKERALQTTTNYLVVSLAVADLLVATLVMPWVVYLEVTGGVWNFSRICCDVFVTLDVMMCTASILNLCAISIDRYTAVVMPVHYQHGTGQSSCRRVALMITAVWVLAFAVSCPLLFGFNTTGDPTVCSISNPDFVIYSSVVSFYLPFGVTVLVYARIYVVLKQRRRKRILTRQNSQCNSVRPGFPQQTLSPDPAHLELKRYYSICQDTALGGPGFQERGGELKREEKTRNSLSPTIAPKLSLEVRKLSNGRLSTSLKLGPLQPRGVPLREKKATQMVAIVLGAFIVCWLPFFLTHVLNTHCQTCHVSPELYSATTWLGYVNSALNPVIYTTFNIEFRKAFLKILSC
Sequence of Kappa-type opioid receptor (Homo sapiens) (P41145 whole entry): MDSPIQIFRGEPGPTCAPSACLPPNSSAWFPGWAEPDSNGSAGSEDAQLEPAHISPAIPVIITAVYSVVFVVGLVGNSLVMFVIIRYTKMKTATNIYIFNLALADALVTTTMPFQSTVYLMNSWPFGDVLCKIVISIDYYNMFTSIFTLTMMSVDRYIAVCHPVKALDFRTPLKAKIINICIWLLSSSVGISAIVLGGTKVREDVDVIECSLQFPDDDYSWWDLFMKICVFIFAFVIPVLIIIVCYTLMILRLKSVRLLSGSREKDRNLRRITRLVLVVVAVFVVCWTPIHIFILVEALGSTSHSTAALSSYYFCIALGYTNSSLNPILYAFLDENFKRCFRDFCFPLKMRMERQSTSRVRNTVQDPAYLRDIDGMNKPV
Sequence of 5-hydroxytryptamine receptor 1B (Homo sapiens) (P28222 whole entry): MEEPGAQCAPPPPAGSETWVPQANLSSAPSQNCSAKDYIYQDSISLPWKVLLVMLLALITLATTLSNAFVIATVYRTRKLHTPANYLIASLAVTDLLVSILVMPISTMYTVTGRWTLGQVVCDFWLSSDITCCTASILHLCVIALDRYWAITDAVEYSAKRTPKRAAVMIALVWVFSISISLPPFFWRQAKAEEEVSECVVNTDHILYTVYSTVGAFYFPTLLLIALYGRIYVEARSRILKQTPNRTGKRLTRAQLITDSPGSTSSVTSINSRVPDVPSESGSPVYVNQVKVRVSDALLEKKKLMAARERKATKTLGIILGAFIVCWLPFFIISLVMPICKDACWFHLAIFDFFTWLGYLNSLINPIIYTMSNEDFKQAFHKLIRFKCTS

On to `CCCCCCCCCCCCCCCCOC[C@H](COP(=O)([O-])OCC[N+](C)(C)C)OC(C)=O`, for which the inhibition (usually the relative decrease from the control value, in per cent) was 71.6% in assay [1]; 50.7% in [2]; -0.21% in assay [3]; 72.5% in assay [4]; 16.4% in assay [5]; 13.6% in assay [6]. The inhibition in assay [7] is -0.67%; in assay [8], 2.85%; in [9], 13.9%; in assay [10] it was 2.23%; in assay [11] it was 11.9%.

Turning to `CC(C)(C)NC[C@H](O)COc1nsnc1N1CCOCC1`, the inhibition in assay [1] is -6.31%; in [2] it was 8.6%; in assay [3], -8.25%; in assay [4] it was -0.36%; in assay [5], 15.6%; in assay [6] it was 6.52%. In addition, the inhibition in assay [7] was 10.1%; in assay [8], 39.4%; in assay [9], 17.9%; in [11], 3.37%.

Turning to `CCCCCNC(=N)N/N=C/c1c[nH]c2ccc(OC)cc12`, the inhibition in assay [1] was 62.5%; in assay [2] it was 55.8%; in [12], 54.7%; in assay [3], 0.53%; in assay [4], 70%; in assay [5] it was 87.3%. Besides, the inhibition in [6] was 54.4%; in assay [7] it was 19%; in assay [8] it was 101%; in [9], 96.3%; in assay [10], 93.7%; in [11] it was 35.1%.

With `COc1cc(-n2cnc3cc(-c4ccc(Cl)cc4)sc3c2=O)ccc1OCCN1CCCC1`, the inhibition is 27.2% in assay [1]; 53.1% in assay [2]; 17.8% in assay [12]; 73.8% in [3]; 68.5% in [4]; 32.4% in [5]. In addition, the inhibition in [6] was 27.2%; in [7], 88.9%; in [8] it was 8.71%; in assay [9], 42.5%; in [10], 32.9%; in [11], 33.2%.

For the molecule `CN1CC(=O)N=C1NC(=O)Nc1cccc(Cl)c1`, the inhibition was -6.38% in [1]; -0.49% in [2]; -8.89% in assay [12]; -2.92% in assay [3]; -3.16% in assay [4]; 27.2% in assay [5]. The inhibition in assay [6] is 18.3%; in [7], -4.69%; in assay [9] it was 31.2%; in [10], 1.19%; in [11] it was 2.28%.

On to `COc1ccc(Br)cc1S(=O)(=O)NC(=O)/C=C/c1ccccc1Cc1ccc2ccccc2c1`, for which the inhibition is -0.54% in [1]; 16.2% in assay [2]; -2.54% in [12]; -8.83% in assay [3]; 64.7% in assay [4]; 33.8% in assay [5]. The inhibition in assay [6] was -9.64%; in assay [7], 5.89%; in assay [8], 9.76%; in [9], 3.55%; in [10] it was 8.02%; in assay [11], 1.49%.

Take `C[C@@H](NCCCc1cccc(C(F)(F)F)c1)c1cccc2ccccc12`: the inhibition is 53.8% in assay [1]; 28.2% in assay [2]; 9.84% in assay [12]; -2.86% in assay [3]; 94.4% in assay [4]; 48% in assay [5]. The inhibition in [6] is -9.65%; in assay [7] it was 18.1%; in [8] it was 87.7%; in assay [9] it was 27.5%; in assay [10], 80.6%; in assay [11], 79.3%.
